# Measurements reported in patent US11951095B2, “Non-hormonal compositions and methods for male contraception” (PHARMAJOR INTERNATIONAL, priority 2018, dated 2024).
# Counter-ions that a name gives are not always drawn.
# Legend:
# Healthy Volunteers [1] = conditions: cited from earlier work
# male = conditions: cited from earlier work
# male subjects [2] = assay: Example 3: single administration contraceptive effect, semen analysis (IR formulation); type: in vivo, human
# Protocol: A study is undertaken to evaluate the effectiveness of the compositions of the present invention in the treatment of male subjects. The objective of the study is to determine whether oral intake of (R)-Silodosin formulation results in a contraceptive effect.
# A total of 7 subjects, aged 18 to 40 years were enrolled in an open-label study. An initial analysis of each subject's semen, collected via masturbation after 3 days of abstinence, is performed by microscopic examination of the fresh semen. Each subject receives one single dose of 12 mg immediate release (R)-Silodosin.
# A semen analysis of each subject is conducted 24 hours after the dosing.
# [3] = cited from earlier work
# [4] = cited from earlier work; remark: listed apart in the source
# [5] = 4 mg twice a day; cited from earlier work
# Healthy Volunteers [6] = conditions: 4 mg twice a day for 3 days; cited from earlier work
# male subjects [7] = conditions: in vivo; cited from earlier work
# healthy volunteer men = conditions: in vivo; cited from earlier work
# sexually active men = conditions: in vivo; cited from earlier work
# [8] = in vivo; cited from earlier work
# participants = conditions: cited from earlier work
# prostatic smooth muscle = conditions: cited from earlier work
# [9] = single dose 12 mg, immediate release (IR) formulation, 24 h, N = 7
# [10] = traditional formulations, with food
compound,measurement,setting,value
"CCOc1ccccc1OCCN[C@H](C)Cc1ccc(OC)c(S(N)(=O)=O)c1 [tamsulosin, (−)-(R)-5-[2-[[2-(o-Ethoxyphenoxy)ethyl]amino]propyl]-2-methoxybenzenesulfonamide, monohydrochloride]",ejaculation,Healthy Volunteers [1]; 0.8-mg dose,An ejaculation was reached
same,functional sperm count,Healthy Volunteers [1]; in vivo,significantly reduced
same,side effects including discomfort on ejaculation,Healthy Volunteers [1]; in vivo,reported by some subjects
same,volume of semen,"Healthy Volunteers [1]; single dose of 0.4 or 0.8 mg, 4 to 6 hours after dosing",dose dependent decrease
CC(COc1ccccc1)N(CCCl)Cc1ccccc1 (centres unmarked) [phenoxybenzamine],effect following male orgasm,male; doses up to 20 mg/day,aspermia
same,reversal of ejaculation block with cessation of treatment,male; in vivo,fully reversed
"C[C@H](Cc1cc2c(c(C(N)=O)c1)N(CCCO)CC2)NCCOc1ccccc1OCC(F)(F)F [(R)-Silodosin, (−)-(R)-1-(3-hydroxypropyl)-5-[2-[[2-[2-(2,2,2-trifluoroethoxy)phenoxy]ethyl]amino]propyl]indoline-7-carboxamide]",time for which contraception is maintained,male subjects [2]; after a 12-mg single dose,up to 24 h
same,Aspermia (subjects with effect),male subjects [2]; [9],6/7
same,Azoospermia (subjects with effect),male subjects [2]; [9],1/7
same,"Total, aspermia or azoospermia (subjects with effect)",male subjects [2]; [9],7/7
same,solubility in acetic acid,[3],very soluble
same,solubility in alcohol,[3],freely soluble
same,solubility in water,[3],very slightly soluble
same,median Tmax,[4]; CDER NDA 22-206,about 2 hours
same,food effect on Cmax,[4]; [10],lower
same,food effect on Tmax,[4]; [10],delayed
same,ejaculatory disorder,[5],high incidence
same,seminal emission,Healthy Volunteers [6],complete lack of seminal emission
same,rate of discomfort upon ejaculation,male subjects [7],100%
same,quality of orgasm,healthy volunteer men,decrease
same,erectile function,sexually active men,decrease
same,sexual desire,[8],decrease
same,spermatozoa in the semen and post-analysis urine,"participants; 8 mg for 7 days, 2 hours after intake",no spermatozoa
same,semen analysis after switch to placebo,"participants; Day 8 to 15 placebo, from day 2 of placebo",normal semen analysis
same,unintended pregnancy,"participants; on demand 8 mg prior to intercourse, 6 months",no unintended pregnancy
same,"uroselectivity compared with other alpha-1 blockers, such as tamsulosin and naftopidil",prostatic smooth muscle,greater
